What all share (experiment): Cell viability (CellTiter-Glo)
Common to all, as to format: cell-based
In general terms: Cellular ATP, detected with luciferase, serves as a proxy for viable cell number.

Assay [1] relates to Ba/F3 cells expressing EGFR WT. Conditions: Mus musculus, BaF3; 72 hours; average ± standard deviation; read-out: Absolute EC50 (50% growth). The procedure: (§1) A cell-based assay was used to evaluate the potency of Compound I on cells where the growth of the cells is either driven by EGFR wild type (WT) or cells comprising atypical mutant EGFR proteins. Cell viability was assessed following treatment with compounds and the assay developed with CellTiterGlo (CTG) reagent that measures ATP levels in cells. Compound I was dissolved in DMSO to generate a 10 mM stock solution. Dosing solutions were prepared by serial dilution in DMSO followed by dilution in complete media to result in a 0.4% DMSO in the assay. Ba/F3 cells expressing EGFR mutants EGFR_G719S, EGFR_G724S, EGFR_L718Q, EGFR_L718V, EGFR_L858R/1L718Q, EGFR_L858R/1L718V, EGFR_del19/L792K. EGFR_del19/G796S were generated following co-transfection of the EGFR mutant of interest with PhiC31 integrase. Two days following transfection, the media was changed and replaced with media lacking mIL3 with the addition of human EGF (hEGF) as well as puromycin to select stable cell lines. After the cell lines were established genomic DNA (gDNA) was extracted to confirm the sequence of the construct of interest. The culture Media for Ba/F3 EGFR mutants was RPMI+10% FBS+2 mM L-Glut±10 ng/ml hEGF+0.5 pig/ml puromycin. The following reagents were used to conduct the assays: RPMI1640 with phenol red (Corning, Cat #: 15-040-CV); Fetal Bovine Serum (FBS) (Omega Scientific, Cat #: FR-11); Human Epidermal Growth Factor (hEGF) (Cell Signaling Cat #8916SC); L-Glutamine (Corning, Cat #: 25-005-CI); Puromycin (Gibco, Cat #A11138-03); assay media was the same as culture medium; CellTiter-Glo® 2.0 Cell Viability Assay (Promega, Cat #G9243), DMSO (Sigma, Cat #: D2660). The following equipment was used to conduct the assays: Bravo Liquid Handler (Agilent #G5523BA); and the following supplies: 96-well Non-Sterile Polypropylene V Bottom Plates (Corning, Cat #: 3363); 384-well Sterile White with Flat Clear Bottom Plates (Greiner, 781098); and PerkinElmer TopSeal-A Plus plate seal (Cat. #6050185).
(§2) Ba/F3 cell lines expressing either EGFR WT or mutant proteins were cultured in complete culture media at exponential growth phase for at least one week prior to assay. The different cell suspensions were counted and seeded into 384-well Sterile White Flat Clear Bottom Plates using a Bravo liquid handler, according to the appropriate cell number in 36 μl of media per well as follows: (a) Ba/F3-WT-EGFR: 2000 cells per well of a 384 well plate; (b) Ba/F3-G719S-EGFR: 2000 cells per well of a 384 well plate; (c) Ba/F3 G724S-EGFR: 1000 cells per well of a 384 well plate; (d) Ba/F3-L718Q-EGFR: 1000 cells per well of a 384 well plate; (e) Ba/F3-L718V-EGFR: 1000 cells per well of a 384 well plate; (f) Ba/F3-L858R/L718Q-EGFR: 1000 cells per well of a 384 well plate; (g) Ba/F3-L858R/L718V-EGFR: 1000 cells per well of a 384 well plate; (h) Ba/F3-del19/L792H-EGFR: 1000 cells per well of a 384 well plate; (i) Ba/F3-del19/G796S-EGFR: 1000 cells per well of a 384 well plate.
(§3) Compound I was solubilized in DMSO as 10 mM stock solutions. These were stored as aliquots at −80° C. and used only once after thawing. The highest concentration of Compound I in the final assay plate was 500 nM. To prepare the compound dilutions intermediate dilution plates were prepared using the Bravo liquid handler by performing 12-point ⅓-fold serial dilutions in DMSO to a final concentration of 250-fold the concentration in the final assay plate, followed by a 1/25 dilution into complete assay media. Compound dilutions in media were added to cells (final assay plate) by dispensing 4 μL into cells plated the same day in 36 μl of medium of media. Plates were placed in a 37° C., 5% CO2 incubator. Following 72 hours of incubation, plates were left to equilibrate at room temperature before the addition of 1:1 ratio of CTG 2.0 using the Bravo liquid handler. […]

In assay [2] the test system is Ba/F3 cells expressing EGFR_G719S. The note with it: Mus musculus, BaF3; 72 hours; average ± standard deviation; read-out: Absolute EC50 (50% growth). The procedure:
as §1, §2, §3

Assay [3] has as its system Ba/F3 cells expressing EGFR_G724S. Conditions: Mus musculus, BaF3; 72 hours; average ± standard deviation; read-out: Absolute EC50 (50% growth). The protocol:
as §1, §2, §3

Assay [4] has as its system Ba/F3 cells expressing EGFR_L718Q. The note with it: Mus musculus, BaF3; 72 hours; average ± standard deviation; read-out: Absolute EC50 (50% growth). The protocol: as §1, §2, §3
The subject of assay [5] is Ba/F3 cells expressing EGFR_L718V. Conditions: Mus musculus, BaF3; 72 hours; average ± standard deviation; read-out: Absolute EC50 (50% growth). The procedure:
as §1, §2, §3

Assay [6] relates to Ba/F3 cells expressing EGFR_L858R/L718Q. Conditions: Mus musculus, BaF3; 72 hours; average ± standard deviation; read-out: Absolute EC50 (50% growth). The protocol:
as §1, §2, §3

Assay [7] concerns Ba/F3 cells expressing EGFR_L858R/L718V. The note with it: Mus musculus, BaF3; 72 hours; average ± standard deviation; read-out: Absolute EC50 (50% growth). The protocol:
as §1, §2, §3

Assay [8] deals with Ba/F3 cells expressing EGFR_del19/G796S. Conditions: Mus musculus, BaF3; 72 hours; average ± standard deviation; read-out: Absolute EC50 (50% growth). The procedure:
as §1, §2, §3

Assay [9] deals with Ba/F3 cells expressing EGFR_del19/L792H. Conditions: Mus musculus, BaF3, 72 h, read-out: Absolute EC50 (50% growth). The protocol:
as §1, §2, §3

Broadly, the EC50 is the concentration giving half of the maximal effect.

Turning to `C=CC(=O)Nc1cc(Nc2cc(N3OCC[C@@H]3c3cc(F)cc(F)c3)ncn2)c(OC)cc1N1CCC(N2CCN(C3CC3)CC2)CC1` [Compound I, N-[2-[4-(4-cyclopropyl-1-piperazinyl)-1-piperidinyl]-5-[[6-[(3R)-3-(3,5-difluorophenyl)-2-isoxazolidinyl]-4-pyrimidinyl]amino]-4-methoxyphenyl]-2-propenamide], the EC50 in [1] is 6.6 ± 4.3 nM; in [2] it was 0.7 ± 0.1 nM; in [3], 1.4 ± 0.9 nM; in [4], 27.1 ± 6.4 nM; in assay [5] it was 0.9 ± 0.8 nM; in assay [6] it was 0.8 ± 0.5 nM. In addition, the values for the EC50 in assay [7], in assay [8] and in assay [9] were 0.2 ± 0.2 nM, 1.1 ± 0.7 nM and 2.5 ± 1.8 nM, respectively.

(Values after patent US20260306491A1, “EGFR INHIBITOR FOR TREATING CANCERS COMPRISING ATYPICAL EGFR MUTATIONS” (ORIC Pharmaceuticals, Inc., priority 2023, published 2026).)
